Legend:
[1] = Liquid-liquid extraction of iodine from nitric acid solution into the organic solvent (distribution coefficient Dex, gamma spectrometry); format: physicochemical; settings: equal volumes; for coefficient de distribution Dex de l'iode: first aqueous solution HNO3 3 mol/L, 125I 1500 kBq/L, ratio organic/aqueous iodine concentration at equilibrium
Procedure: Dans un premier temps, on met en contact, dans un tube en polypropylène étanche, une première solution aqueuse d'acide nitrique de concentration 3 mol/L contenant de l'iode ^125I, à une teneur de 1500 kBq/L avec une phase organique contenant du 1,2-NPHE. Les volumes de la solution aqueuse et de la phase organique sont égaux. L'ensemble est agité entre 10 minutes et une heure de façon douce par un dispositif approprié et ultérieurement mis dans une centrifugeuse pour une durée de 10 minutes à 4000 rpm.
On mesure le coefficient de distribution Dex de l'iode entre la première solution aqueuse et la phase organique, ce coefficient correspondant au rapport de la concentration en iode en phase organique à la concentration en iode en solution aqueuse à l'équilibre. Les concentrations en iode sont mesurées par spectrométrie gamma.

[2] = Re-extraction of iodine from the loaded organic solvent into aqueous sodium hydroxide solution (distribution coefficient Dréex); format: physicochemical
Excerpt: Dans un deuxième temps, on met en contact la phase organique après extraction et après élimination de la première solution aqueuse, avec une deuxième solution aqueuse de réextraction, ladite solution étant une solution aqueuse de soude, les volumes de phase organique et de solution de réextraction étant sensiblement égaux.
Différents essais ont été effectués en faisant varier la concentration en soude de la deuxième solution aqueuse. On mesure les coefficients de distribution Dréex de l'iode, qui pour la réextraction correspond au rapport de la concentration en iode dans la seconde solution aqueuse à la concentration en iode en phase organique.

| SMILES | coefficient de distribution Dex de l'iode [1] | Dréex ([2]; soude 0,1 mol/L (10^-1 mol/L)) | other results |
| --- | --- | --- | --- |
| CCCCCCOc1ccccc1[N+](=O)[O-] [1,2-NPHE, 1,2-nitrophénylhexyléther] | 3 | 5,7 | % d'extraction ([1]; corresponds to Dex of 3, HNO3 3 mol/L): 75%; Dréex ([2]; soude 0,5 mol/L): 6,6; Dréex ([2]; soude 0,6 mol/L): 7,6; Dréex ([2]; soude 1,5 mol/L): 6,6; Dréex ([2]; soude 1 mol/L): 7,0; Dréex ([2]; soude 2 mol/L, ratio aqueous/organic): 6,3; Dréex ([2]; soude 5.10^-2 mol/L): 5,5; Dréex ([2]; soude 5.10^-3 mol/L): 0,04; Dréex ([2]; soude 10^-1 mol/L with borohydrure de sodium 10^-3 mol/L): 5,8; Dréex ([2]; soude 10^-2 mol/L): 4,9; Dréex ([2]; soude 10^-3 mol/L): 0,02; Dréex ([2]; soude 10^-4 mol/L): 0 |
| CCCCCCCCOc1ccccc1[N+](=O)[O-] [1,2-NPOE, 1,2-nitrophényloctyléther] | 2,9 | 1,7 |  |
| CC(C)c1cccc(C(C)C)c1 [1,3-diisopropylbenzène] | 2,3 | 2,3 |  |
| CC(=O)CC(C)C [4-méthyl-1,2-pentanone, reference compound] | 9,1 | 0,012 |  |
| CCCCCC(=O)O [Acide Hexanoique, acide hexanoïque, reference compound] | 4,1 | 0,04 |  |
| CCCCOC(C)=O [Acétate de butyle, acétate de butyle, reference compound] | 6,6 | 0,014 |  |
| CC(C)CCCCCCCCCCO [Isotridécanol, isotridécanol, reference compound] | 5,2 | 0,028 |  |
| CCCCCCCCO [Octanol, octanol, reference compound] | 8,7 | 0,023 |  |
| CCCCCC [hexane] | 1,5 | 4,2 |  |
| CCCCCCc1ccccc1 [hexylbenzène] | 2.7 | 11.6 |  |

From EP1455919B1, “IODINE EXTRACTION METHOD” (Commissariat à l'Énergie Atomique et aux Énergies …, priority 2001, dated 2003)
